Several values for one entry are separate records, joined by “and”; a condition that tells them apart may be missing. Identical values can stand only once.
Tested on: C. elegans
Assay: C. elegans motor phenotype scoring on solid media (Punc/jerky-unc, coiled, paralyzed), wild-type young adults
Assay type: in vivo, Caenorhabditis elegans
Conditions: for atypical locomotion (number of animals) / coiled (number of animals) / no phene (number of animals) / paralyzed (number of animals): young adults, 20 animals per trial, single replicate counts; for Fraction Coiled / Fraction Jerky-Unc / Fraction No Phenotype / Fraction Parayzed / Fraction Coiled, Averages of 3 biological repeats / Fraction Jerky-Unc, Averages of 3 biological repeats / Fraction No Phenotype, Averages of 3 biological repeats / Fraction Parayzed, Averages of 3 biological repeats / C1 (loose coil) worm count / C2 (tight coil) worm count / J (jerky-unc) worm count / NP (no phene) worm count / P (paralyzed) worm count: 60 min; for rep 1 atypical locomotion / rep 1 coiled / rep 1 no phene / rep 1 paralyzed: N2, count of 20 animals
[1] = 15 µM, N2 adult worms, Averages of 3 biological repeats
[2] = 15 µM, N2 adult worms, Bio Rep 1
[3] = 15 µM, N2 adult worms, Bio Rep 3
[4] = 15 µM, N2 adult worms, Bio rep 2
[5] = 30 µM, N2 adult worms, Averages of 3 biological repeats
[6] = 30 µM, N2 adult worms, Bio Rep 1
[7] = 30 µM, N2 adult worms, Bio Rep 3
[8] = 30 µM, N2 adult worms, Bio rep 2
[9] = 60 µM, N2 adult worms, Averages of 3 biological repeats
[10] = 60 µM, N2 adult worms, Bio Rep 1
[11] = 60 µM, N2 adult worms, Bio Rep 3
[12] = 60 µM, N2 adult worms, Bio rep 2
[13] = N2, 15 µM, adult worms, average of 3 biological repeats
[14] = N2, 30 µM, adult worms, average of 3 biological repeats
[15] = N2, 60 µM, adult worms, average of 3 biological repeats
[16] = N2 series 1 (run with e245, md414), 15 µM
[17] = N2 series 1 (run with e245, md414), 15 µM, single Bio Rep
[18] = N2 series 1 (run with e245, md414), 30 µM
[19] = N2 series 1 (run with e245, md414), 30 µM, single Bio Rep
[20] = N2 series 1 (run with e245, md414), 60 µM
[21] = N2 series 1 (run with e245, md414), 60 µM, single Bio Rep
[22] = N2 series 2 (run with e327), 15 µM
[23] = N2 series 2 (run with e327), 15 µM, single Bio Rep
[24] = N2 series 2 (run with e327), 30 µM
[25] = N2 series 2 (run with e327), 30 µM, single Bio Rep
[26] = N2 series 2 (run with e327), 60 µM
[27] = N2 series 2 (run with e327), 60 µM, single Bio Rep

In the case of `O=[N+]([O-])c1ccc(N2CCN(CC3CCCCC3)CC2)cc1` [Nemacol-1], the “atypical locomotion (number of animals)” value (3.75uM, one hour) is reported as 9 and 12 and 2 and 3 and 11, the “coiled (number of animals)” value (3.75uM, one hour) is reported as 0 and 2 and 1 and the “no phene (number of animals)” value (3.75uM, one hour) is reported as 11 and 8 and 16 and 17 and 9. For the same compound, the “paralyzed (number of animals)” value (3.75uM, one hour) was 0, the “Fraction Coiled” value [1] was 0.15 and the “Fraction Jerky-Unc” value [1] was 0.69. For the same compound, the “Fraction No Phenotype” value [1] was 0.15, the “Fraction Parayzed” value [1] was 0.0185 and the “Fraction Coiled” value [2] was 0.17. The “Fraction Jerky-Unc” value [2] was 0.6111, the “Fraction No Phenotype” value [2] was 0.22 and the “Fraction Parayzed” value [2] was 0. The “Fraction Coiled” value [3] was 0.11, the “Fraction Jerky-Unc” value [3] was 0.8333 and the “Fraction No Phenotype” value [3] was 0.0556. The “Fraction Parayzed” value [3] was 0, the “Fraction Coiled” value [4] was 0.17 and the “Fraction Jerky-Unc” value [4] was 0.6111. The “Fraction No Phenotype” value [4] was 0.17, the “Fraction Parayzed” value [4] was 0.05556 and the “any phene, mean % fraction of young adults exhibiting any phenotype (coiled, jerky-Unc or paralyzed)” value (15uM, one hour, mean of three biological replicates) was 91.0317%. The “atypical locomotion (number of animals)” value (15uM, one hour) was 6 and 4 and 7 and 5 and 12 and 16, the “coiled (number of animals)” value (15uM, one hour) was 5 and 8 and 13 and 4 and the “no phene (number of animals)” value (15uM, one hour) was 0 and 5 and 2 and 4. The “paralyzed (number of animals)” value (15uM, one hour) was 9 and 11 and 1 and 0, the “Fraction Coiled” value [5] was 0.46 and the “Fraction Jerky-Unc” value [5] was 0.31. For the same compound, the “Fraction No Phenotype” value [5] was 0.00, the “Fraction Parayzed” value [5] was 0.23 and the “Fraction Coiled” value [6] was 0.61. For the same compound, the “Fraction Jerky-Unc” value [6] was 0.2222, the “Fraction No Phenotype” value [6] was 0.00 and the “Fraction Parayzed” value [6] was 0.1667. For the same compound, the “Fraction Coiled” value [7] was 0.41, the “Fraction Jerky-Unc” value [7] was 0.3529 and the “Fraction No Phenotype” value [7] was 0.00. For the same compound, the “Fraction Parayzed” value [7] was 0.2353, the “Fraction Coiled” value [8] was 0.35 and the “Fraction Jerky-Unc” value [8] was 0.3529. The “Fraction No Phenotype” value [8] was 0.00, the “Fraction Parayzed” value [8] was 0.2941 and the “Fraction Coiled” value [9] was 0.60. The “Fraction Jerky-Unc” value [9] was 0.10, the “Fraction No Phenotype” value [9] was 0.00 and the “Fraction Parayzed” value [9] was 0.29. For the same compound, the “Fraction Coiled” value [10] was 0.69, the “Fraction Jerky-Unc” value [10] was 0.125 and the “Fraction No Phenotype” value [10] was 0.00. For the same compound, the “Fraction Parayzed” value [10] was 0.1875, the “Fraction Coiled” value [11] was 0.56 and the “Fraction Jerky-Unc” value [11] was 0.1111. The “Fraction No Phenotype” value [11] was 0.00, the “Fraction Parayzed” value [11] was 0.3333 and the “Fraction Coiled” value [12] was 0.57. The “Fraction Jerky-Unc” value [12] was 0.07143, the “Fraction No Phenotype” value [12] was 0.00 and the “Fraction Parayzed” value [12] was 0.3571. The “atypical locomotion (number of animals)” value (60uM, one hour) was 2 and 1 and 4, the “coiled (number of animals)” value (60uM, one hour) was 7 and 11 and 17 and 19 and 12 and 8 and the “no phene (number of animals)” value (60uM, one hour) was 0. The “paralyzed (number of animals)” value (60uM, one hour) was 11 and 7 and 1 and 0 and 6 and 8, the “motor defects after 24 h on compound” value (24 h) was “no longer have obvious motor defects” and the EC50 (Caenorhabditis elegans, 1 h, read-out: C. elegans - motor disruption EC50) was 7.1 µM. For the same compound, the “Fraction Coiled” value [13] was 0.15, the “Fraction Jerky-Unc” value [13] was 0.69 and the “Fraction No Phenotype” value [13] was 0.15. The “Fraction Parayzed” value [13] was 0.0185, the “Fraction Coiled” value [14] was 0.46 and the “Fraction Jerky-Unc” value [14] was 0.31. The “Fraction No Phenotype” value [14] was 0.00, the “Fraction Parayzed” value [14] was 0.23 and the “Fraction Coiled” value [15] was 0.60. For the same compound, the “Fraction Jerky-Unc” value [15] was 0.10, the “Fraction No Phenotype” value [15] was 0.00 and the “Fraction Parayzed” value [15] was 0.29. The “rep 1 atypical locomotion” value (conc 3.75) was 3, the “rep 1 coiled” value (conc 3.75) was 2 and the “rep 1 no phene” value (conc 3.75) was 15. The “rep 1 paralyzed” value (conc 3.75) was 0, the “rep 1 atypical locomotion” value (conc 15) was 3 and the “rep 1 coiled” value (conc 15) was 4. For the same compound, the “rep 1 no phene” value (conc 15) was 7, the “rep 1 paralyzed” value (conc 15) was 6 and the “rep 1 atypical locomotion” value (conc 60) was 2. For the same compound, the “rep 1 coiled” value (conc 60) was 3, the “rep 1 no phene” value (conc 60) was 0 and the “rep 1 paralyzed” value (conc 60) was 15. The “Fraction Coiled, Averages of 3 biological repeats” value [16] was 0.26, the “Fraction Jerky-Unc, Averages of 3 biological repeats” value [16] was 0.67 and the “Fraction No Phenotype, Averages of 3 biological repeats” value [16] was 0.037. For the same compound, the “Fraction Parayzed, Averages of 3 biological repeats” value [16] was 0.037, the “C1 (loose coil) worm count” value [17] was 1 and 2 and the “C2 (tight coil) worm count” value [17] was 3 and 4. The “Fraction Coiled” value [17] was 0.28 and 0.22, the “Fraction Jerky-Unc” value [17] was 0.6111 and 0.7222 and 0.6667 and the “J (jerky-unc) worm count” value [17] was 13 and 11 and 12. For the same compound, the “Fraction Coiled, Averages of 3 biological repeats” value [18] was 0.59, the “Fraction Jerky-Unc, Averages of 3 biological repeats” value [18] was 0.28 and the “Fraction No Phenotype, Averages of 3 biological repeats” value [18] was 0.00. For the same compound, the “Fraction Parayzed, Averages of 3 biological repeats” value [18] was 0.13, the “C1 (loose coil) worm count” value [19] was 5 and the “C2 (tight coil) worm count” value [19] was 5 and 7. The “Fraction Coiled” value [19] was 0.56 and 0.67, the “Fraction Jerky-Unc” value [19] was 0.1667 and 0.3333 and the “Fraction No Phenotype” value [19] was 0.00. For the same compound, the “J (jerky-unc) worm count” value [19] was 6 and 3, the “NP (no phene) worm count” value [19] was 0 and the “Fraction Coiled, Averages of 3 biological repeats” value [20] was 0.64. For the same compound, the “Fraction Jerky-Unc, Averages of 3 biological repeats” value [20] was 0.11, the “Fraction No Phenotype, Averages of 3 biological repeats” value [20] was 0.00 and the “Fraction Parayzed, Averages of 3 biological repeats” value [20] was 0.25. For the same compound, the “C1 (loose coil) worm count” value [21] was 3 and 4, the “C2 (tight coil) worm count” value [21] was 6 and 8 and the “Fraction Coiled” value [21] was 0.67 and 0.60. The “Fraction No Phenotype” value [21] was 0.00, the “NP (no phene) worm count” value [21] was 0 and the “Fraction Coiled, Averages of 3 biological repeats” value [22] was 0.20. For the same compound, the “Fraction Jerky-Unc, Averages of 3 biological repeats” value [22] was 0.69, the “Fraction No Phenotype, Averages of 3 biological repeats” value [22] was 0.11 and the “Fraction Parayzed, Averages of 3 biological repeats” value [22] was 0.00. For the same compound, the “C2 (tight coil) worm count” value [23] was 3 and 2, the “Fraction Jerky-Unc” value [23] was 0.7778 and 0.6667 and 0.6316 and the “Fraction No Phenotype” value [23] was 0.11. For the same compound, the “Fraction Parayzed” value [23] was 0, the “J (jerky-unc) worm count” value [23] was 12 and 14 and the “NP (no phene) worm count” value [23] was 2. The “P (paralyzed) worm count” value [23] was 0, the “Fraction Coiled, Averages of 3 biological repeats” value [24] was 0.49 and the “Fraction Jerky-Unc, Averages of 3 biological repeats” value [24] was 0.36. The “Fraction No Phenotype, Averages of 3 biological repeats” value [24] was 0.00, the “Fraction Parayzed, Averages of 3 biological repeats” value [24] was 0.15 and the “C2 (tight coil) worm count” value [25] was 4 and 7 and 6. The “Fraction No Phenotype” value [25] was 0.00, the “NP (no phene) worm count” value [25] was 0 and the “Fraction Coiled, Averages of 3 biological repeats” value [26] was 0.57. The “Fraction Jerky-Unc, Averages of 3 biological repeats” value [26] was 0.11, the “Fraction No Phenotype, Averages of 3 biological repeats” value [26] was 0.00 and the “Fraction Parayzed, Averages of 3 biological repeats” value [26] was 0.32. The “C1 (loose coil) worm count” value [27] was 3 and 4, the “Fraction Coiled” value [27] was 0.58 and 0.41 and 0.72 and the “Fraction No Phenotype” value [27] was 0.00. For the same compound, the “Fraction Parayzed” value [27] was 0.3158 and 0.3529 and 0.2778, the “NP (no phene) worm count” value [27] was 0 and the “P (paralyzed) worm count” value [27] was 6 and 5. For the same compound, the “fold difference in C. elegans EC50, Vesamicol vs Nemacol-1” value (Vesamicol EC50 higher, Nemacol-1 more potent) was 5.4 fold.
